Test system: Human hair follicles in growth phase (anagen)
Experiment: Human hair follicle growth assay
Type: cell-based
Conditions: for Hair follicle length increase (mm), Treated: day 0 to day 7 in culture
Experimental: Human hair Follicle Growth Assay:
Human hair follicles in growth phase (anagen) were isolated from face-lift tissue (obtained from plastic surgeons) under dissecting scope using a scalpel and watchmakers forceps. The skin was sliced into thin strips exposing 2-3 rows of follicles that could readily be dissected. Follicles were placed into 0.5 ml William's E medium (Life Technologies, Gaithersburg, Md.) supplemented with 2 mM L-glutamine, 10 μg/ml insulin, 10 ng/ml hydrocortisone, 100 units of penicillin, 0.1 mg/ml streptomycin and 0.25 μg/ml amphotericin B. The follicles were incubated in 24-well plates (1 follicle/well) at 37° C. in an atmosphere of 5% CO2 and 95% air. Compounds are dissolved into dimethyl sulfoxide as 100-fold stock solution. The control hair follicles were treated with dimethyl sulfoxide without prostaglandin. The follicles were photographed in the 24-well plates under the dissecting scope at a power of 10×. Typically, image recordings were made on day 0 (day follicles were placed in culture), and again on day 7. The length of hair follicle was assessed using an image analysis software system. The growth of hair fiber was calculated by the subtracting the follicle length on day 0 from that determined on day 7.

[1] = dose 50 μM, vs dimethyl sulfoxide control
[2] = dose 1 μM, dose-dependence study
[3] = dose 5 μM, dose-dependence study
[4] = dose 10 μM, dose-dependence study
[5] = dose 30 μM, vs dimethyl sulfoxide control

Structure (SMILES) | Hair follicle length increase (mm), Treated (dose 50 μM) [mm] | % Reduction of human hair follicle growth [1] [%] | % Reduction of human hair follicle growth [2] [%] | Growth of follicle (mm), Treated [2] [mm] | % Reduction of human hair follicle growth [3] [%] | Growth of follicle (mm), Treated [3] [mm] | % Reduction of human hair follicle growth [4] [%] | Growth of follicle (mm), Treated [4] [mm] | Hair follicle length increase (mm), Treated (dose 30 μM) [mm] | % Reduction of human hair follicle growth [5] [%] | further results
CCCCCC=CC=C1CCC(=O)C1C/C=C\CCCC(=O)O (centres unmarked) [9,10-Dihydro-15-deoxy-^Δ12,14-PGJ2, 9,10-dihydro-15-deoxy-Δ^12,14-PGJ2] | 0.02 ± 0.03 | 98.8 ± 1.9 | – | – | – | – | – | – | – | – | –
C=C1C[C@H](O)[C@H](C/C=C\CCCC(=O)O)[C@H]1/C=C/[C@@H](O)CCCCC [11-Deoxy-11-methylene PGD2] | 1.11 ± 0.14 | 36.9 ± 8.0 | – | – | – | – | – | – | – | – | –
CCCCC[C@@](C)(O)/C=C/[C@H]1C(=O)C[C@H](O)[C@@H]1C/C=C\CCCC(=O)O [15(R)-15-Methyl PGD2] | 0.04 ± 0.05 | 97.5 ± 3.1 | – | – | – | – | – | – | – | – | –
CCCCC[C@](C)(O)/C=C/[C@H]1C(=O)C[C@H](O)[C@@H]1C/C=C\CCCC(=O)O [15(S)-15-Methyl PGD2] | – | – | – | – | – | – | – | – | – | – | Hair follicle length increase (mm), Treated (dose 100 μM): 0.08 ± 0.06 mm; % Reduction of human hair follicle growth (dose 100 μM, vs dimethyl sulfoxide control): 92.7 ± 5.5%
CCCCC/C=C/C=C1/C(=O)C[C@H](O)[C@@H]1C/C=C\CCCC(=O)O [15-Deoxy-Δ^12,14-PGD2] | 0.10 ± 0.08 | 94.3 ± 4.5 | – | – | – | – | – | – | – | – | –
CCCCC/C=C/C=C1/C(=O)C=C[C@@H]1C/C=C\CCCC(=O)O [15-Deoxy-Δ^12,14-PGJ2] | – | – | 0 | 1.42 ± 0.37 | 34.8 | 0.21 ± 0.13 | 94.3 | 0.08 ± 0.07 | 0.10 ± 0.09 | 94.7 ± 5.0 | –
CCCCC(C)(C)[C@H](O)/C=C/[C@H]1C(=O)C[C@H](O)[C@@H]1C/C=C\CCCC(=O)O [16,16-Dimethyl PGD2] | 0.10 ± 0.05 | 94.3 ± 2.8 | – | – | – | – | – | – | – | – | –
O=C(O)CCC/C=C\C[C@H]1[C@@H](O)CC(=O)[C@@H]1/C=C/[C@@H](O)CCc1ccccc1 [17-Phenyl trinor PGD2] | 0.10 ± 0.12 | 93.8 ± 7.4 | – | – | – | – | – | – | – | – | –
CCCCC[C@H](O)/C=C/[C@H]1C(=O)C[C@H](O)[C@@H]1C/C=C\CCCC(=O)O [PGD2, prostaglandin D2] | – | – | 4.4 | 1.51 ± 0.28 | 12.7 | 1.38 ± 0.30 | 38.0 | 0.98 ± 0.32 | 0.24 ± 0.10 | 87.3 ± 5.0 | Hair growth inhibition profile (dose dependence, in words): dose dependent; Reduction of human hair follicle growth (in words): significant reduction of human hair follicle growth
CCCCC[C@H](O)/C=C/[C@H]1C(=O)C=C[C@@H]1C/C=C\CCCC(=O)O [PGJ2] | – | – | 9.5 | 1.43 ± 0.34 | 34.8 | 1.03 ± 0.35 | 68.4 | 0.50 ± 0.29 | 0.16 ± 0.25 | 91.5 ± 13 | Hair growth inhibition profile (dose dependence, in words): dose dependent; Reduction of human hair follicle growth (in words): reduce hair growth
CCCCC[C@H](O)C/C=C1/C(=O)C=C[C@@H]1C/C=C\CCCC(=O)O [Δ^12-PGJ2] | – | – | 0.7 | 1.40 ± 0.44 | 10.6 | 1.26 ± 0.38 | 77.3 | 0.32 ± 0.15 | 0.29 ± 0.46 | 84.6 ± 24 | –

Reference: patent publication US20050112075A1, “Reduction of hair growth” (priority 2003, published 2005)
